Source: article PMC9119049 (Journal of medicinal chemistry, 2021)
Values belong to the molecule of their own block, whether it stands above or below them.

Columns and labels:
HEK293T cells [1] = test: p21 immunoblotting in HEK293T cells; conditions: 6 h drug exposure
MM1.S cells = test: Cell growth inhibition, CellTiter Blue; assay type: cell-based; conditions: 72 h drug exposure, single experiment in hexaplicate (± SEM)
HEK293T cells [2] = test: Cell growth inhibition, CellTiter Blue; assay type: cell-based; conditions: 72 h drug exposure, single experiment in hexaplicate (± SEM)
PLK1 = test: Phospho-TCTP; conditions: MM1.S cells; 30 – 100 nM drug concentration; 6 h drug exposure; immunoblotting

Structure (SMILES): CC[C@@H]1C(=O)N(C)c2cnc(Nc3ccc(C(=O)NC4CCN(C)CC4)cc3OC)nc2N1C1CCCC1 [BI2536]
- p21Cip1 levels (HEK293T cells [1]): increased significantly

Structure (SMILES): CCOc1cc(C(=O)N2CCC(N3CCN(C)CC3)CC2)ccc1Nc1ncc2c(n1)N(C1CCCC1)c1ccccc1C(=O)N2C [ERK5-IN-1]
- p21Cip1 levels (HEK293T cells [1]): lacked the potential to increase

- Cell growth inhibitory potential IC50 (MM1.S cells): low nanomolar
Structure (SMILES): C[C@@H](Oc1cc(-n2cnc3ccc(CN4CCN(C)CC4)cc32)sc1C(N)=O)c1ccccc1C(F)(F)F [GSK461364]
- Cell growth inhibitory potential IC50 (HEK293T cells [2]): low nanomolar
- levels of phosphorylated TCTP (S46) (PLK1): significantly reduced

Structure (SMILES): COc1cc(C(=O)N2CCC(N3CCN(C)CC3)CC2)ccc1Nc1ncc2c(n1)N(C)c1ccccc1C(=O)N2C [LRRK2-IN-1]
- p21Cip1 levels (HEK293T cells [1]): increased significantly

Structure (SMILES): CC[C@@H]1C(=O)N(C)c2cnc(Nc3ccc(C(=O)N[C@H]4CC[C@H](N5CCN(CC6CC6)CC5)CC4)cc3OC)nc2N1C(C)C [Volasertib]
- levels of phosphorylated TCTP (S46) (PLK1): significantly reduced
- p21Cip1 levels (HEK293T cells [1]): increased significantly

Structure (SMILES): CCOc1cc(N2CCC(O)CC2)ccc1Nc1ncc2c(n1)N(C)c1ccccc1C(=O)N2C [XMD8-92]
- p21Cip1 levels (HEK293T cells [1]): lacked the potential to increase
